Data reported in patent US4388304A, “Angiotensin-II analogues with antagonizing effects, containing an ester group in position 8, and a process for the preparation thereof” (Richter Gedeon Vegyeszeti Gyar RT, priority 1980, dated 1983).

Tested on: narcotized male cats
Assay: Antagonism of Hypertensin (angiotensin-II) infusion-induced blood pressure rise in narcotized male cats
Assay type: in vivo, cat
Method: The antagonistic effects of the new compounds of the general formula (I) were investigated on narcotized male cats. After treating the animals with a ganglion blocking agent and bisecting the cervical vagus nerves on both side, an infusion of Hypertensin (CIBA) was given to the animals at a rate of 0.5 μg/kg/min. When the blood pressure of the animals reached a steady, increased level, the substance to be tested was administered either intravenously or subcutaneously in physiological saline solution or as an aqueous solution which also contained a carrier. The blood pressure drop was measured in mm Hg units, and the extent of decrease was expressed in percent related to the value before treatment. The statistical evaluation was performed on the basis of the blood pressure differences, by Student's single sample "t" test. The term "duration of effect" denotes the period elapsed until the observation of the last, still significant (p=5%) blood pressure difference.

[1] = s.c., carboxymethyl cellulose (CMC), dose 50 μg/kg
[2] = s.c., carboxymethyl cellulose (CMC), dose 100 μg/kg
[3] = s.c., physiological saline, dose 50 μg/kg
[4] = s.c., physiological saline, dose 100 μg/kg
[5] = s.c., carboxymethyl cellulose (CMC), dose 200 μg/kg

Compound: CC[C@H](C)[C@H](NC(=O)[C@H](Cc1ccc(O)cc1)NC(=O)[C@@H](NC(=O)[C@H](CCCNC(=N)N)NC(=O)CNC)C(C)C)C(=O)N[C@@H](Cc1c[nH]cn1)C(=O)N1CCC[C@H]1C(=O)N[C@H](C(=O)OC)[C@@H](C)CC [(Sar^1,Ile--OMe^8)-Ang-II, (sarcosine^1, isoleucine methyl ester^8)angiotensin-II]
- blood pressure decrease, percent related to the value before treatment (i.v., dose 20 μg/kg): 21%
- duration of effect (i.v., dose 20 μg/kg): 25 min
- blood pressure decrease, percent related to the value before treatment (i.v., dose 40 μg/kg): 20%
- duration of effect (i.v., dose 40 μg/kg): 38 min
- blood pressure decrease, percent related to the value before treatment [1]: 9%
- duration of effect [1]: .phi.
- blood pressure decrease, percent related to the value before treatment [2]: 17%
- duration of effect [2]: 200 min
- blood pressure decrease, percent related to the value before treatment (s.c., gelatine, dose 100 μg/kg): 5%
- duration of effect (s.c., gelatine, dose 100 μg/kg): 15 min
- blood pressure decrease, percent related to the value before treatment (s.c., gelatine, dose 200 μg/kg): 23%
- duration of effect (s.c., gelatine, dose 200 μg/kg): 300 min
- blood pressure decrease, percent related to the value before treatment [3]: 8%
- duration of effect [3]: 180 min
- blood pressure decrease, percent related to the value before treatment [4]: 25%
- duration of effect [4]: 240 min

Compound: CC[C@H](C)[C@H](NC(=O)[C@H](Cc1ccc(O)cc1)NC(=O)[C@@H](NC(=O)[C@H](CCCNC(=N)N)NC(=O)CNC)C(C)C)C(=O)N[C@@H](Cc1c[nH]cn1)C(=O)N1CCC[C@H]1C(=O)N[C@@H](C)C(=O)OC [(Sar^1,Ala--OMe^8)-Ang-II, (sarcosine^1, alanine methyl ester^8)-angiotensin-II]
- blood pressure decrease, percent related to the value before treatment (i.v., dose 10 μg/kg): 18%
- duration of effect (i.v., dose 10 μg/kg): 12 min
- blood pressure decrease, percent related to the value before treatment (i.v., dose 20 μg/kg): 29%
- duration of effect (i.v., dose 20 μg/kg): 60 min
- blood pressure decrease, percent related to the value before treatment [1]: 11%
- duration of effect [1]: 22 min
- blood pressure decrease, percent related to the value before treatment [2]: 18%
- duration of effect [2]: 22 min
- blood pressure decrease, percent related to the value before treatment [3]: 20%
- duration of effect [3]: 45 min
- blood pressure decrease, percent related to the value before treatment [4]: 20%
- duration of effect [4]: 45 min

Compound: CNCC(=O)N[C@@H](CCCN=C(N)N)C(=O)N[C@H](C(=O)N[C@@H](Cc1ccc(O)cc1)C(=O)N[C@H](C(=O)N[C@@H](Cc1cnc[nH]1)C(=O)N1CCC[C@H]1C(=O)N[C@@H](C)C(=O)O)C(C)C)C(C)C [Saralasin, (Sar^1, Ala^8)-angiotensin-II, reference compound]
- blood pressure decrease, percent related to the value before treatment (i.v., dose 10 μg/kg): 32%
- blood pressure decrease, percent related to the value before treatment [2]: 23%
- duration of effect [2]: 45 min
- blood pressure decrease, percent related to the value before treatment [5]: 28%
- duration of effect [5]: 90 min
- blood pressure decrease, percent related to the value before treatment (s.c., gelatine, dose 200 μg/kg): 23%
- duration of effect (s.c., gelatine, dose 200 μg/kg): .phi.
- blood pressure decrease, percent related to the value before treatment [4]: 29%
- blood pressure decrease, percent related to the value before treatment (s.c., physiological saline, dose 200 μg/kg): 24%

Compound: CC[C@H](C)[C@H](NC(=O)[C@H](Cc1ccc(O)cc1)NC(=O)[C@@H](NC(=O)[C@H](CCCNC(=N)N)NC(=O)CNC)C(C)C)C(=O)N[C@@H](Cc1c[nH]cn1)C(=O)N1CCC[C@H]1C(=O)N[C@H](C(=O)OC)[C@@H](C)OC [(Sar^1,Thr/Me/--OMe^8)-Ang-II, (sarcosine^1, threonine/Me/methyl ester^8)-angiotensin-II]
- blood pressure decrease, percent related to the value before treatment (i.v., dose 20 μg/kg): 12%
- duration of effect (i.v., dose 20 μg/kg): 12 min
- blood pressure decrease, percent related to the value before treatment [4]: 27%
- duration of effect [4]: 45 min
